Source: US20230295157A1, “3-(1H-IMIDAZOL-2-YL)-2,3,8,8A-TETRAHYDROINDOLIZIN-5(1H)-ONE DERIVATIVES USEFUL AS FACTOR XIA INHIBITORS” (JANSSEN PHARMACEUTICA NV, priority 2020, published 2023)
Where two headings read alike, the source gives them in different places. Blank lines part the entries; values can stand above or below the compound they belong to.

Assays:
human plasma kallikrein = human plasma kallikrein (Homo sapiens (Human), UniProt P03952); experiment: Kallikrein inhibition assay (FLINT) utilizing a quenched AMC peptide substrate; format: biochemical; settings: 30 min preincubation, kinetic reads over 30 min, Z-Gly-Pro-Arg-AMC substrate 50 μM; read-out: Kallikrein Kin Inh IC50
Protocol: Biological Example 2: Kallikrein Inhibition Assay Utilizing a Quenched AMC Peptide Substrate A fluorescence intensity (FLINT) based assay was used to monitor inhibition of human plasma kallikrein.
The Kallikrein FLINT assay was used with the following Z-Gly-Pro-Arg-AMC assay buffer: 50 mM Tris, pH 7.5, 100 mM NaCl, 5 mM CaCl2), 0.1 mg/mL BSA, 0.03% CHAPS. Assay buffer was prepared by mixing all ingredients fresh. 2×Z-Gly-Pro-Arg-AMC peptide substrate was prepared by diluting 10 mM stock into 1×assay buffer for a 100 μM working concentration (50 μM final concentration). The 2×kallikrein stock solution was prepared by diluting 14.76 μM stock in 1×assay buffer for a 4 nM working stock solution (2 nM final concentration).
Test compound(s) were run in an 11-point, 3-fold serial dilution with a final top compound concentration of 1 μM. Final DMSO in assay was 2%. Plasma kallikrein was pre-incubated for 30-minute with compound and then 50 μM substrate was added to initiate the reaction. The assay was run with kinetic (KIN) reads at 5 min intervals over 30 minutes. […] More specifically, the assay was run as follows: • 100 nL of 0.1 mM test compound was dispensed into black 384-well non-binding Greiner BioOne 784900 plate for 1 μM final concentration; • 5 μL of 1×assay buffer was dispensed to columns 24 (low control) and 5 μL 2×human kallikrein enzyme solution was dispensed to columns 1-23 (column 23 high control); • the plate was centrifuged with a “cover” plate at 500 rpm for 1 min • the plate was pre-incubated for 30 minutes at room temperature with plate covered; • 5 μL of 2×Z-Gly-Pro-Arg-AMC peptide substrate was dispensed into the entire plate, columns 1-24; • the plate was centrifuged with a “cover” plate at 500 rpm for 1 min; • the plate was read monitoring fluorescence intensity on the BMG PHERAStar at room temperature, using fluorescence module 340 nm/440 nm.
(§1) Percent inhibition (IC50) curves were generated per compound tested, and data was analyzed using a 4-parameter logistic fit using GeneData Screener. The relative fluorescence unit (RFU) values were normalized to percent inhibition using the following equation:
% inhibition=((HC-LC)−(compound-LC)\(HC-LC))*100 where LC—low control=mean signal of human kallikrein enzyme or 100% inhibition of human kallikrein enzyme; HC—high control=mean signal of Factor XIa+Z-Gly-Pro-Arg-AMC peptide substrate with DMSO only.
(§2) An 11-point dose response curve for the test compound(s) was generated using GENDATA to determine IC50 value based on the following equation:
Y=Bottom+(Top-Bottom)/(1+10^((logIC50−X)*HillSlope)) where Y is the % inhibition in the presence of X inhibitor concentration, Top=high control=mean signal of human kallikrein enzyme+Z-Gly-Pro-Arg-AMC peptide substrate with DMSO only; Bottom=low control−mean signal of no human kallikrein enzyme or 100% inhibition of human kallikrein enzyme; HillSlope—Hill coefficient; and IC50=concentration of compound with 50% inhibition in relation to top/high control.

Factor XIa = Factor XIa (Homo sapiens (Human), UniProt P03951); experiment: Factor XIa inhibition assay (FLINT) utilizing a fluorophore-quencher pair peptide substrate; format: biochemical; settings: 30 min preincubation, kinetic reads over 30 min, read-out: FXIa Kin Inh IC50
Source text: Biological Example 1: Factor XIa Inhibition Assay Utilizing a Fluorophore-Quencher Pair Peptide Substrate
A fluorescence intensity (FLINT) based assay was used to monitor inhibition of Factor XIa. The peptide substrate, 5Fam-[…]-K5Tamra (purchased from New England Peptide) was chosen based on the FXI sequence. Conversion of zymogen […]. The custom peptide used in this assay was based on the Arg146 cleavage site of FXI. The peptide substrate was designed with a fluorophore-quencher pair, where the fluorescence is quenched until FXIa cleaves the 8-mer peptide after the Arg residue.
The Factor XIa FLINT assay was used with the following 5Fam-[…]-K5Tamra assay buffer: 50 mM Tris, pH 7.5, 100 mM NaCl, 5 mM CaCl2), 0.1 mg/mL BSA, 0.03% CHAPS. Assay buffer was prepared by mixing all ingredients fresh. 5Fam-[…]-K5Tamra peptide substrate was first prepared at 10 mM in 100% DMSO, then diluted to 3 mM in 100% DMSO. Assay buffer was then added directly to the 3 mM stock of substrate to prepare the 30 μM 2× working concentration (15 μM final concentration). The 2×Factor XIa stock solution was prepared by diluting 6.562 μM stock in 1×assay buffer for a 200 μM working stock solution (100 μM final concentration).
Test compound(s) were run in an 11-point, 3-fold serial dilution with a final top compound concentration of 100 nM. Final DMSO in assay was 2%. FXIa was preincubated with compound for 30-minutes and then substrate was added to initiate the reaction. The assay was run with kinetic (KIN) reads at 5 min intervals over 30 minutes. The time course was linear using 100 μM FXIa greater than 30 minutes. More specifically, the assay was run as follows: • 100 nL of 0.01 mM test compound was dispensed into black 384 well non-binding Greiner BioOne 784900 plate for 0.1 μM final concentration; • 5 μL of 1×assay buffer was dispensed to column 24 (low control) and 5 μL 2×Factor XIa solution was dispensed to columns 1-23 (column 23 high control); • the plate was centrifuged with a “cover” plate at 500 rpm for 1 min • the plate was pre-incubated for 30 minutes at room temperature with plate covered; • 5 μL of 2×5Fam-[…]-K5Tamra peptide substrate was dispensed into the entire plate, columns 1-24; • the plate was centrifuged with a “cover” plate at 500 rpm for 1 min; • the plate was read monitoring fluorescence intensity on the BMG PHERAStar at room temperature, using fluorescence module 485 nm/520 nm.
as §1
% inhibition=((HC-LC)−(compound−LC)/(HC-LC))*100
where LC—low control=mean signal of no Factor XIa or 100% inhibition of Factor XIa; HC—high control=mean signal of Factor XIa+5Fam-[…]-K5Tamra peptide substrate with DMSO only.
as §2
Y=Bottom+(Top-Bottom)/(1+10^((logIC50-X)*HillSlope))
where Y is the % inhibition in the presence of X inhibitor concentration, Top=high control=mean signal of Factor XIa+5Fam-[…] K5Tamra peptide substrate with DMSO only; Bottom=low control−mean signal of no Factor XIa or 100% inhibition of Factor XIa; HillSlope—Hill coefficient; and IC50=concentration of compound with 50% inhibition in relation to top/high control.
Representative compounds of the present invention were tested according to the procedure described in Biological Example 1 and Biological Example 2 above, with results as listed in Table 3, below.

[1] = 5Fam-[…]-K5Tamra substrate 15 μM
[2] = 5Fam-KLTRAETV-K5Tamra substrate 15 μM

human plasma kallikrein, sequence (P03952 391-638): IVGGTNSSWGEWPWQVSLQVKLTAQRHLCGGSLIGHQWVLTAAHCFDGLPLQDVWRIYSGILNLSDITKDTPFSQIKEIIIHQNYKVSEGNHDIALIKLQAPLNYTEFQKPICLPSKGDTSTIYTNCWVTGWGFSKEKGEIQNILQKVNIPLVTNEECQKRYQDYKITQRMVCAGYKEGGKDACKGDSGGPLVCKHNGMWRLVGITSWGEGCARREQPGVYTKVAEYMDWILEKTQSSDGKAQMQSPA
human plasma kallikrein, sequence (P03952 20-390 partner): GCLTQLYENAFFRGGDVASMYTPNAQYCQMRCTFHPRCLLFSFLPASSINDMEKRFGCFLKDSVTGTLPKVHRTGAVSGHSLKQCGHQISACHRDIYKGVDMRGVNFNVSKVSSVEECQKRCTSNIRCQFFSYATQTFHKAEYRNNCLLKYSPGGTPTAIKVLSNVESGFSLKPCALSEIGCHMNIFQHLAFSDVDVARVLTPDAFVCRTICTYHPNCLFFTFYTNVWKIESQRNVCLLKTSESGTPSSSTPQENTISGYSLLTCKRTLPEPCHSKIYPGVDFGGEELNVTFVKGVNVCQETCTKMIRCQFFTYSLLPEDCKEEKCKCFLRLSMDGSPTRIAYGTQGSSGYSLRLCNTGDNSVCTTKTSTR
Factor XIa, sequence (P03951 388-625): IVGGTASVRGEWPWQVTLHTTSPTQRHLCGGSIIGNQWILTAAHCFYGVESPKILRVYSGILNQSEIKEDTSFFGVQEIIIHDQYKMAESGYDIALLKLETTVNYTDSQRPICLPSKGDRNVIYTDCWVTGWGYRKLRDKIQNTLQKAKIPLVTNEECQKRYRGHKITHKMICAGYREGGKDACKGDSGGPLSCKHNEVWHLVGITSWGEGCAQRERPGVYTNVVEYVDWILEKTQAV
Factor XIa, sequence (P03951 19-387 partner): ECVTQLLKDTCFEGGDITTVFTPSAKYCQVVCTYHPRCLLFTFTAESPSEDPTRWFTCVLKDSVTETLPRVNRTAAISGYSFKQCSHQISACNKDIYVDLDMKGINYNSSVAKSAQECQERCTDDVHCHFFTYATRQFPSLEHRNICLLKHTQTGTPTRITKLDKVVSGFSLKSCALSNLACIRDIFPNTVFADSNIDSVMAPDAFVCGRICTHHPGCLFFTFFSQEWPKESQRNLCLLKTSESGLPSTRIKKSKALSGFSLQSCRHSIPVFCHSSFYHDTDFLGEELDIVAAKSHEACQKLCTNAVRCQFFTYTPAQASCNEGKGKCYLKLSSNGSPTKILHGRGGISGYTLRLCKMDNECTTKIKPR

Structure (SMILES): CC1(C)C[C@@H](c2ncc(-c3ccc(N)nc3Cl)[nH]2)N2C(=O)C=C(c3c(-n4cnnn4)ccc(Cl)c3F)C[C@@H]21 (relative stereo) [Example 335, (3S,8aR)-3-(5-(6-Amino-2-chloropyridin-3-yl)-1H-imidazol-2-yl)-7-(3-chloro-2-fluoro-6-(1H-tetrazol-1-yl)phenyl)-1,1-dimethyl-2,3,8,8a-tetrahydroindolizin-5(1H)-one]
IC50 (human plasma kallikrein): 22.7 nM
IC50 (Factor XIa; [1]): 5.7 nM

Structure (SMILES): C[C@H]1C[C@@H](c2ncc(-c3ccc(N)nc3F)[nH]2)N2C(=O)C=C(c3c(-n4cnnn4)ccc(Cl)c3F)C[C@@H]12 (single isomer, unassigned) [Example 346, (1*S,3S,8a*S)-3-(5-(6-Amino-2-fluoropyridin-3-yl)-1H-imidazol-2-yl)-7-(3-chloro-2-fluoro-6-(1H-tetrazol-1-yl)phenyl)-1-methyl-2,3,8,8a-tetrahydroindolizin-5(1H)-one]
IC50 (human plasma kallikrein): 8.2 nM
IC50 (Factor XIa; [2]): 1.3 nM

Structure (SMILES): C[C@H](Oc1nccc(-c2cnc([C@@H]3CC[C@H]4CC(c5c(-n6cnnn6)ccc(Cl)c5F)=CC(=O)N43)[nH]2)c1F)c1nnco1 (relative stereo) [Example 127, (3S*,8aS*)-3-(5-(2-((S*)-1-(1,3,4-oxadiazol-2-yl)ethoxy)-3-fluoropyridin-4-yl)-1H-imidazol-2-yl)-7-(3-chloro-2-fluoro-6-(1H-tetrazol-1-yl)phenyl)-2,3,8,8a-tetrahydroindolizin-5(1H)-one]
IC50 (human plasma kallikrein): 12.9 nM
IC50 (Factor XIa; [1]): 10.9 nM

Structure (SMILES): C[C@H](Oc1nccc(-c2cnc([C@@H]3CC[C@@H]4CC(c5c(-n6cnnn6)ccc(Cl)c5F)=CC(=O)N43)[nH]2)c1F)c1ncco1 (single isomer, unassigned) [Example 142, (3*S,8a*R)-7-(3-chloro-2-fluoro-6-(1H-tetrazol-1-yl)phenyl)-3-(5-(3-fluoro-2-((*S)-1-(oxazol-2-yl)ethoxy)pyridin-4-yl)-1H-imidazol-2-yl)-2,3,8,8a-tetrahydroindolizin-5(1H)-one]
IC50 (human plasma kallikrein): 10.7 nM
IC50 (Factor XIa; [2]): 6.2 nM

The next lines start with the values.

IC50 (human plasma kallikrein): 4 nM
IC50 (Factor XIa; [2]): 2.1 nM
Structure (SMILES): O=C1C=C(c2c(-n3cnnn3)ccc(Cl)c2F)C[C@H]2CC[C@@H](c3nc(-c4ccc5[nH]ncc5c4)c[nH]3)N12 [Example 43, (3S,8aR)-3-(4-(1H-indazol-5-yl)-1H-imidazol-2-yl)-7-(3-chloro-2-fluoro-6-(1H-tetrazol-1-yl)phenyl)-2,3,8,8a-tetrahydroindolizin-5(1H)-one]

IC50 (human plasma kallikrein): 65.5 nM
IC50 (Factor XIa; [2]): 6.3 nM
Structure (SMILES): Cc1c(-c2cnc([C@@H]3CCC4CC(c5c(-n6cnnn6)ccc(Cl)c5F)=CC(=O)N43)[nH]2)ccnc1N (stereo partly drawn) [Example 21, (3S)-3-(5-(2-Amino-3-methylpyridin-4-yl)-1H-imidazol-2-yl)-7-(3-chloro-2-fluoro-6-(1H-tetrazol-1-yl)phenyl)-2,3,8,8a-tetrahydroindolizin-5(1H)-one]

IC50 (human plasma kallikrein): 35.1 nM
IC50 (Factor XIa; [2]): 4.6 nM
Structure (SMILES): C[C@H](O)c1nccc(-c2cnc([C@@H]3CC[C@@H]4CC(c5c(-n6cnnn6)ccc(Cl)c5F)=CC(=O)N43)[nH]2)c1F [Example 186, (3S,8aR)-7-(3-chloro-2-fluoro-6-(1H-tetrazol-1-yl)phenyl)-3-(5-(3-fluoro-2-((S)-1-hydroxyethyl)pyridin-4-yl)-1H-imidazol-2-yl)-2,3,8,8a-tetrahydroindolizin-5(1H)-one]

IC50 (human plasma kallikrein): 1.3 nM
IC50 (Factor XIa; [2]): 1.9 nM
Structure (SMILES): O=C1C=C(c2c(-n3cnnn3)ccc(Cl)c2F)CC2CC[C@@H](c3ncc(-c4ccc5[nH]c(=O)oc5c4)[nH]3)N12 (stereo partly drawn) [Example 309, 6-(2-((3S)-7-(3-Chloro-2-fluoro-6-(1H-tetrazol-1-yl)phenyl)-5-oxo-1,2,3,5,8,8a-hexahydroindolizin-3-yl)-1H-imidazol-4-yl)benzo[d]oxazol-2(3H)-one]

IC50 (human plasma kallikrein): 11.7 nM
IC50 (Factor XIa; [2]): 0.6 nM
Structure (SMILES): Nc1ccc(-c2cnc([C@H]3CC[C@@H]4CC(c5cc(Cl)ccc5-n5cnnn5)=CC(=O)N43)[nH]2)c(F)n1 (single isomer, unassigned) [Example 119, (3*R,8aR)-3-(5-(6-amino-2-fluoropyridin-3-yl-5-d)-1H-imidazol-2-yl)-7-(5-chloro-2-(1H-tetrazol-1-yl)phenyl-3-d)-2,3,8,8a-tetrahydroindolizin-5(1H)-one]
